In US10556888B2, “Pyrazole compounds or salts thereof, preparation methods therefor, herbicidal compositions and use thereof” (QINGDAO KINGAGROOT CHEMICAL COMPOUNDS CO., LTD, priority 2015, dated 2020):

Assays:
[1] = system: Monocotyledonous and dicotyledonous weed; assay: Post-emergence test experiment, weed control effect (Table 2); assay type: in vivo; set-up: key to weed control effect, Setaria viridis (level) / weed control effect, Rorippa indica (level) / weed control effect, Abutilon theophrasti (level) / weed control effect, Echinochloa crus-galli (level) / weed control effect, Digitaria sanguinalis (level): Level 10: completely dead; Level 9: above 90% growth inhibition rate; Level 8: above 80% growth inhibition rate; Level 7: above 70% growth inhibition rate; Level 6: above 60% growth inhibition rate; Level 5: above 50% growth inhibition rate; Level 4: above 30% growth inhibition rate; Level 3: above 20% growth inhibition rate; Level 2: above 10% growth inhibition rate; Level 1: above 1-10% growth inhibition rate; Level 0: no effect; conditions: 3 weeks after spraying, greenhouse
Method: (§1) Post-emergence test experiment: Monocotyledonous and dicotyledonous weed seeds and main crop seeds (i.e. wheat, corn, rice, soybean, cotton, oilseed, millet and sorghum.) were put into a plastic pot loaded with soil. Then covered with 0.5-2 cm soil, the seeds were allowed to grow in good greenhouse environment. The test plants were treated at 2-3 leaf stage 2-3 weeks after sowing. The test compounds of the invention were dissolved with acetone respectively, then added with 80 tween and diluted by certain amount of water to certain concentration. The solution was sprayed to the plants with a sprayer. Then the plants were cultured for 3 weeks in the greenhouse.

[2] = system: main crop (wheat, corn, rice, soybean, cotton, oilseed, millet and sorghum); assay: Post-emergence test experiment, main crops (Table 2); assay type: in vivo; set-up: key: Level 10: completely dead; Level 9: above 90% growth inhibition rate; Level 8: above 80% growth inhibition rate; Level 7: above 70% growth inhibition rate; Level 6: above 60% growth inhibition rate; Level 5: above 50% growth inhibition rate; Level 4: above 30% growth inhibition rate; Level 3: above 20% growth inhibition rate; Level 2: above 10% growth inhibition rate; Level 1: above 1-10% growth inhibition rate; Level 0: no effect; conditions: 3 weeks after spraying, greenhouse
Method: as §1

SMILES	weed control effect, Abutilon theophrasti (level) ([1]; 120 g/ha)	weed control effect, Bidens pilosa (level) ([1]; 120 g/ha)	weed control effect, Digitaria sanguinalis (level) ([1]; 120 g/ha)	weed control effect, Echinochloa crus-galli (level) ([1]; 120 g/ha)	weed control effect, Rorippa indica (level) ([1]; 120 g/ha)	weed control effect, Setaria viridis (level) ([1]; 120 g/ha)	effect on crop, corn (level) ([2]; 120 g/ha)	effect on crop, rice (level) ([2]; 120 g/ha)	effect on crop, wheat (level) ([2]; 120 g/ha)	weed control effect, Abutilon theophrasti (level) ([1]; 30 g/ha)	weed control effect, Bidens pilosa (level) ([1]; 30 g/ha)	weed control effect, Digitaria sanguinalis (level) ([1]; 30 g/ha)	weed control effect, Echinochloa crus-galli (level) ([1]; 30 g/ha)	weed control effect, Rorippa indica (level) ([1]; 30 g/ha)	weed control effect, Setaria viridis (level) ([1]; 30 g/ha)	effect on crop, corn (level) ([2]; 30 g/ha)	effect on crop, rice (level) ([2]; 30 g/ha)	effect on crop, wheat (level) ([2]; 30 g/ha)	other results
CCOc1c(C(=O)Oc2c(C(=O)c3ccc(S(C)(=O)=O)c(Cn4cc(C)cn4)c3Cl)cnn2C)cnn1C [Compound 23]	6 (Level 6: above 60% growth inhibition rate)	6 (Level 6: above 60% growth inhibition rate)	1 (Level 1: above 1-10% growth inhibition rate)	10	4 (Level 4: above 30% growth inhibition rate)	3 (Level 3: above 20% growth inhibition rate)	0	0	0	–	–	–	–	–	–	–	–	–	–
CCn1nc(C)c(C(=O)c2ccc(S(C)(=O)=O)c(Cn3cccn3)c2Cl)c1OC(=O)c1cn(C)nc1C [Compound 89]	–	–	–	–	–	–	–	–	–	7 (Level 7: above 70% growth inhibition rate)	7 (Level 7: above 70% growth inhibition rate)	7 (Level 7: above 70% growth inhibition rate)	10	10	8 (Level 8: above 80% growth inhibition rate)	1 (Level 1: above 1-10% growth inhibition rate)	1 (Level 1: above 1-10% growth inhibition rate)	0	–
Cc1ccn(Cc2c(S(C)(=O)=O)ccc(C(=O)c3c(C4CC4)nn(C)c3OC(=O)c3cnn(C)c3)c2Cl)n1 [Compound 21]	6 (Level 6: above 60% growth inhibition rate)	6 (Level 6: above 60% growth inhibition rate)	1 (Level 1: above 1-10% growth inhibition rate)	10	4 (Level 4: above 30% growth inhibition rate)	3 (Level 3: above 20% growth inhibition rate)	0	0	0	–	–	–	–	–	–	–	–	–	–
Cc1nn(C)cc1C(=O)Oc1c(C(=O)c2ccc(S(C)(=O)=O)c(COCC(F)(F)F)c2Cl)c(C)nn1C(C)C [Compound 98]	–	–	–	–	–	–	–	–	–	5 (Level 5: above 50% growth inhibition rate)	7 (Level 7: above 70% growth inhibition rate)	8 (Level 8: above 80% growth inhibition rate)	10	10	10	1 (Level 1: above 1-10% growth inhibition rate)	5 (Level 5: above 50% growth inhibition rate)	0	–
Cc1cc(C)n(Cc2c(S(C)(=O)=O)ccc(C(=O)c3c(C)nn(C)c3OC(=O)c3cn(C)nc3C)c2Cl)n1 [Compound 03]	4 (Level 4: above 30% growth inhibition rate)	6 (Level 6: above 60% growth inhibition rate)	0	10	0	6 (Level 6: above 60% growth inhibition rate)	0	0	0	–	–	–	–	–	–	–	–	–	–
CCOc1c(C(=O)Oc2c(C(=O)c3ccc(S(C)(=O)=O)c(COCC(F)F)c3Cl)cnn2C)cnn1C [Compound 57]	–	–	–	–	–	–	–	–	–	7 (Level 7: above 70% growth inhibition rate)	7 (Level 7: above 70% growth inhibition rate)	7 (Level 7: above 70% growth inhibition rate)	10	10	9 (Level 9: above 90% growth inhibition rate)	0	3 (Level 3: above 20% growth inhibition rate)	0	–
CCOCc1c(S(C)(=O)=O)ccc(C(=O)c2c(CC)nn(C)c2OC(=O)c2cn(C)nc2C)c1Cl [Compound 31]	–	–	–	–	–	–	–	–	–	7 (Level 7: above 70% growth inhibition rate)	7 (Level 7: above 70% growth inhibition rate)	10	10	5 (Level 5: above 50% growth inhibition rate)	9 (Level 9: above 90% growth inhibition rate)	0	5 (Level 5: above 50% growth inhibition rate)	0	–
C#CCOCc1c(S(C)(=O)=O)ccc(C(=O)c2c(C)nn(C)c2OC(=O)c2cnn(C)c2OCC)c1Cl [Compound 56]	–	–	–	–	–	–	–	–	–	7 (Level 7: above 70% growth inhibition rate)	7 (Level 7: above 70% growth inhibition rate)	7 (Level 7: above 70% growth inhibition rate)	10	10	9 (Level 9: above 90% growth inhibition rate)	0	3 (Level 3: above 20% growth inhibition rate)	0	–
CCCCOCc1c(S(C)(=O)=O)ccc(C(=O)c2c(C)nn(C)c2OC(=O)c2cn(C)nc2C)c1Cl [Compound 34]	–	–	–	–	–	–	–	–	–	–	–	–	–	–	–	–	–	–	weed control effect, Abutilon theophrasti (level) ([1]; 60 g/ha): 10; weed control effect, Bidens pilosa (level) ([1]; 60 g/ha): 8 (Level 8: above 80% growth inhibition rate); weed control effect, Digitaria sanguinalis (level) ([1]; 60 g/ha): 10; weed control effect, Echinochloa crus-galli (level) ([1]; 60 g/ha): 10; weed control effect, Rorippa indica (level) ([1]; 60 g/ha): 10; weed control effect, Setaria viridis (level) ([1]; 60 g/ha): 8 (Level 8: above 80% growth inhibition rate); effect on crop, corn (level) ([2]; 60 g/ha): 0; effect on crop, rice (level) ([2]; 60 g/ha): 1 (Level 1: above 1-10% growth inhibition rate); effect on crop, wheat (level) ([2]; 60 g/ha): 0
Cc1cc(C)n(Cc2c(S(C)(=O)=O)ccc(C(=O)c3c(C4CC4)nn(C)c3OC(=O)c3cn(C)nc3C)c2Cl)n1 [Compound 11]	4 (Level 4: above 30% growth inhibition rate)	6 (Level 6: above 60% growth inhibition rate)	0	10	0	6 (Level 6: above 60% growth inhibition rate)	0	0	0	–	–	–	–	–	–	–	–	–	–
Cc1cc(C)n(Cc2c(S(C)(=O)=O)ccc(C(=O)c3c(C)nn(C(C)C)c3OC(=O)c3nn(C)cc3Cl)c2Cl)n1 [Compound 103]	7 (Level 7: above 70% growth inhibition rate)	7 (Level 7: above 70% growth inhibition rate)	2 (Level 2: above 10% growth inhibition rate)	10	10	3 (Level 3: above 20% growth inhibition rate)	1 (Level 1: above 1-10% growth inhibition rate)	0	0	–	–	–	–	–	–	–	–	–	–
CCc1nn(C(C)C)c(OC(=O)c2cn(C)nc2C)c1C(=O)c1ccc(S(C)(=O)=O)c(Cn2cccn2)c1Cl [Compound 99]	–	–	–	–	–	–	–	–	–	7 (Level 7: above 70% growth inhibition rate)	7 (Level 7: above 70% growth inhibition rate)	7 (Level 7: above 70% growth inhibition rate)	10	10	8 (Level 8: above 80% growth inhibition rate)	1 (Level 1: above 1-10% growth inhibition rate)	1 (Level 1: above 1-10% growth inhibition rate)	0	–
CCOCCOCc1c(S(C)(=O)=O)ccc(C(=O)c2c(C3CC3)nn(C)c2OC(=O)c2cnn(C)c2)c1Cl [Compound 74]	–	–	–	–	–	–	–	–	–	7 (Level 7: above 70% growth inhibition rate)	5 (Level 5: above 50% growth inhibition rate)	6 (Level 6: above 60% growth inhibition rate)	10	10	6 (Level 6: above 60% growth inhibition rate)	0	3 (Level 3: above 20% growth inhibition rate)	0	–
